Measurements as given in patent publication US20070093520A1, “Method of treatment of diarrhea-predominant irritable bowel syndrome in a subject” (priority 2005, published 2007).

What was measured:
[1] = in vivo
Method: One subject took fluvoxamine while taking cilansetron 2 mg TID.

[2] = system: diarrhea-predominant IBS subjects; experiment: 3007 Study: IBS-QOL Survey; format: in vivo, human
From the text: Subjects were asked to complete the IBS-QOL Survey at Visits 1, 3, and 6 in order to assess possible changes of their QOL.
Subjects were asked to complete a IBS-QOL Survey at Day 1 (Visit 5 of the core protocol), Month 6 and Month 12 (end of study or early termination) in order to assess possible changes of their QOL. The IBS-QoL survey, a 34 item IBS-specific QoL questionnaire consisting of 8 subscales (i.e., interference with activity; body image; health worry; food avoidance; social reaction; sexual; relationship; and dysphoria) was completed by patients at baseline and at later specified time points (e.g., at week 12 and at week 16 in Study 5050).
For IBS-QOL, Baseline for subjects randomized to the cilansetron treatment group was defined as […] of core Study 3006. For subjects randomized to the placebo group of core Study 3006, Visit 5 of the core Study 3006 was assigned as the Baseline.
Mean changes from Baseline for the IBS-QOL total score and subscale domains were summarized via descriptive statistics at […] and Visit 6 (Month 12) of Study 3007 for subjects randomized to the placebo group in core Study 3006 (or for subjects randomized to the cilansetron treatment group in the core Study 3006, at Visit 5 (Month 3), at Visit 3 (Month 6) and Visit 6 (Month 15) of Study 3007).
For Study 3007, “baseline” was defined as the last post-Baseline visit of Study 3006 (normally Visit 5) for subjects randomized to the placebo group and as Visit 1 of core Study 3006 for subjects randomized to the cilansetron treatment group.
The overall IBS-QOL score and the separate IBS-QOL domain scores (i.e. dysphoria, interference with activity, body image, health worry, food avoidance, social reaction, sexual, and relationship) were summarized by treatment group using descriptive statistics. The calculation of each domain score and the overall score is detailed in the user's manual. For each of the domain scores, as well as for the overall score, the change from Baseline to Endpoint was summarized descriptively. Based on the instruction from the author of the IBS-QOL questionnaire, the missing data of the IBS-QOL questionnaire were handled as follows: • If less than or equal to 20% of the items within a subscore (or total score) were missing for a subject, the subscore (or total score) was the summation of the non-missing scores for that subject; • If more than 20% of the items within a subscore (or total score) were missing, the subscore (or total score) was missing for that subject. Determination of Sample Size

[3] = system: diarrhea-predominant IBS subjects; experiment: 3007 Study: laboratory marked abnormalities; format: in vivo, human; conditions: Study 3007
Method: Subjects were encouraged to fast at least six hours prior to laboratory samples being drawn. Laboratory safety tests were performed at Day 1 (Visit 5 of the core protocol), Months 1, 6, and 12 (end of study or at the early termination visit). Blood and urine were analyzed for:
• Prothrombin time (PT) (only before colonoscopy, as per clinical practice) • Hemoglobin • Hematocrit • Red blood cell count (RBC) • White blood cell count (WBC) • Differential blood count • Platelet count Blood Chemistry: • Glucose • Creatinine • Blood urea nitrogen (BUN) • Creatine kinase (CK) • Alkaline phosphatase (AP) • Total bilirubin • Alanine aminotransferase (ALT/SGPT) • Aspartate aminotransferase (AST/SGOT) • Gamma-glutamyltransferase (GGT) • Triglycerides • Cholesterol • Total protein • Uric acid • Sodium • Potassium • Calcium • Quantitative beta human chorionic gonadotrophin (β-HCG) (at every visit) • Thyroid stimulating hormone (visit 1 only) Urine: • Urobilinogen • Blood • Bilirubin • Ketones • Glucose • Protein • Nitrite • Leukocytes • pH • Dipstick pregnancy test (Day 1 only, if necessary) Stool: • Parasite, ova and stool culture (visit 1 only, if necessary) • Occult blood (analysis at each visit)
Laboratory data are presented in conventional units. Only one central laboratory was used for each laboratory parameter, thus no laboratory normalization was carried out.
For Study 3007, “baseline” was defined as Visit 1 of core Study 3006 for subjects randomized to the cilansetron treatment group in Study 3006 and as the last post-Baseline visit of Study 3006 (normally Visit 5) for subjects randomized to the placebo group in Study 3006.
Summary statistics are presented for all hematology and chemistry parameters at each analysis timepoint and at Endpoint, as well as for change from Baseline results at each post-Baseline analysis timepoint and at Endpoint. For laboratory assessments that were gender specific, summaries were presented separately for males and females. A listing of laboratory assessments for hematology, chemistry, and urinalysis parameters is presented. The following categories were used for the urinalysis parameter summaries: • pH: ≦5.0, >5.0 to ≦6.0, >6.0 to ≦7.0, and >7.0 • glucose, total protein, ketones, total bilirubin, nitrite, RBC (erythrocytes), and urobilinogen: negative and other (consisting of ‘trace’, ‘positive’, ‘+’, ‘++’, ‘+++’, or ‘++++’) • WBC (leukocytes): negative, positive
The overall incidence of post-Baseline marked abnormalities for hematology and chemistry parameters is also presented. Where applicable, the incidence of post-Baseline marked abnormalities is presented separately by whether the value was abnormally high or low. Any post-Baseline markedly abnormal laboratory measurement collected after the first dose of cilansetron and within 30 days of the last dose of cilansetron was included. However, assessments which were done more than 30 days after last subject visit and after database lock were not included in the analysis. Subjects were counted at most once for the post-Baseline marked abnormality for each laboratory parameter.

For `Cc1nccn1C[C@H]1CCc2c(c3cccc4c3n2CCC4)C1=O` [cilansetron, (R)-(−)-4,5,6,8,9,10-hexahydro-10-[(2-methyl-1H-imidazol-1-yl)methyl]-11H-pyrido-[3,2,1-jk]-carbazol-11-one], the “increase of cilansetron plasma levels” value [1] was “approximately six to seven”, the “QOL after the start of cilansetron treatment” value ([2]; Study 3007, P/C) was “An improvement was observed” and the “improvement of mean IBS-QOL total score from Baseline” value ([2]; Study 3007, at Endpoint, C/C) was 20.1. For the same compound, the “mean IBS-QOL total score” value ([2]; Study 3007, at Endpoint, C/C) was 70.7, the “improvement of mean IBS-QOL total score from Baseline” value ([2]; Study 3007, at Endpoint, P/C) was 8.9 and the “mean IBS-QOL total score” value ([2]; Study 3007, at Endpoint, P/C) was 70.9. The “mean IBS-QOL total score” value ([2]; Study 3007, at Endpoint, overall) was 70.8, the “mean IBS-QOL total score” value ([2]; at the start of Study 3007 (after 12 weeks of Study 3006), C/C) was 69.5 and the “beneficial effect on the QOL observed during Study 3006” value ([2]; during Study 3007, C/C) was “maintained”. The “post-Baseline markedly high CK” value [3] was 3%, the “post-Baseline markedly high eosinophils” value [3] was 1% and the “post-Baseline markedly high triglycerides” value [3] was 3%. The “post-Baseline markedly high uric acid” value [3] was 1%, the “post-Baseline markedly high GGT” value ([3]; females) was 5% and the “post-Baseline markedly high GGT” value ([3]; males) was 7%. For the same compound, the “post-Baseline markedly high GGT” value ([3]; overall) was 6%.
